In general, IC50 refers to the concentration needed to halve the response being measured.

The source of these data is US12692254B2, “Benzimidazole inhibitors of PAD enzymes” (BRISTOL-MYERS SQUIBB COMPANY, priority 2018, dated 2026).

In the test the target is human PAD4 (hPAD4) (Homo sapiens, UniProt Q9UM07). Put plainly: RFMS human PAD4 functional assay (rapid-fire mass spectrum). In kind it is biochemical. Conditions: 5 nM hPAD4 enzyme, 250 μM BAEE, 50 μM Calcium; 30 min preincubation, 90 min reaction at 37° C. The essentials:
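PAD4 (10 nM) preincubated 30 min with compound (top final 50 μM), then BAEE substrate added in pH 7.5 HEPES buffer with DTT, 50 μM calcium, TPEN; 90 min at 37° C. After TCA quench, citrulline derivatized with phenyl glyoxal (4 mM final, 30 min, 37° C) and quantified by RapidFire MS against internal standard.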

Sequence of human PAD4 (hPAD4) (Q9UM07 whole entry): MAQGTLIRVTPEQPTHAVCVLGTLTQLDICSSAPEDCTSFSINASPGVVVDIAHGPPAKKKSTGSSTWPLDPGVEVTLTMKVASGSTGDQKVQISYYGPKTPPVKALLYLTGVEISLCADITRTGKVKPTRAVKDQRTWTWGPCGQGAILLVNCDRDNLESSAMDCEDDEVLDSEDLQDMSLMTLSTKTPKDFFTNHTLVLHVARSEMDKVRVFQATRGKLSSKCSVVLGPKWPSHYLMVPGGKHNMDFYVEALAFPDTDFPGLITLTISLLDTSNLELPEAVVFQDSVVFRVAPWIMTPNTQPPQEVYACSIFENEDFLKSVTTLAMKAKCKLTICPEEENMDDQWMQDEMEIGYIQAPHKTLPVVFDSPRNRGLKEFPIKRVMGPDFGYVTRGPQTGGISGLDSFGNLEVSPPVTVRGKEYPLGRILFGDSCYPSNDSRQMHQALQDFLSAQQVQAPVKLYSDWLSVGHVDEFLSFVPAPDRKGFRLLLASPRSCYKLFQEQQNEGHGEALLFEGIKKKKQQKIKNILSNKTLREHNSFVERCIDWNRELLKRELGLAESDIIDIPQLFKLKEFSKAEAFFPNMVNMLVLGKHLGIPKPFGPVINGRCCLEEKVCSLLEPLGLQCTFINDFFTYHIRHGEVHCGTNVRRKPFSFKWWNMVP

As for `COc1cc(C(=O)N2C[C@H]3CC[C@@H]2[C@@H]3N)cc2nc(-c3cc4cccnc4n3CC3CC3)n(C[C@@H]3CCN(c4cncnc4C#N)C3)c12` [Example 214, 5-[(3R)-3-({5-[(1R,4R,7R)-7-amino-2-azabicyclo[2.2.1]heptane-2-carbonyl]-2-[1-(cyclopropylmethyl)-1H-pyrrolo[2,3-b]pyridin-2-yl]-7-methoxy-1H-1,3-benzodiazol-1-yl}methyl)pyrrolidin-1-yl]pyrimidine-4-carbonitrile], the IC50 amounted to 116 nM.

Regarding `C=CC(=O)N1CC(Cn2c(-c3cc4cccnc4n3CC3CC3)nc3cc(C(=O)N4C[C@H]5CC[C@@H]4[C@@H]5N)cc(OC)c32)C1` [Example 124, 1-[3-({5-[(1R,4R,7R)-7-amino-2-azabicyclo[2.2.1]heptane-2-carbonyl]-2-[1-(cyclopropylmethyl)-1H-pyrrolo[2,3-b]pyridin-2-yl]-7-methoxy-1H-1,3-benzodiazol-1-yl}methyl)azetidin-1-yl]prop-2-en-1-one], the IC50 came to 102 nM.

`COc1cc(C(=O)N2CC3CCC2[C@@H]3N)cc2nc(-c3cc4ccccc4n3CC3CC3)n(CC3CCS(=O)(=O)C3)c12` (stereo partly drawn) [Example 290, ((7R)-7-amino-2-azabicyclo[2.2.1]heptan-2-yl)(2-(1-(cyclopropylmethyl)-1H-indol-2-yl)-1-((1,1-dioxidotetrahydrothiophen-3-yl)methyl)-7-methoxy-1H-benzo[d]imidazol-5-yl)methanone]: the half-maximal inhibitory concentration (IC50) is 1590 nM.

Turning to `COc1cc(C(=O)N2C[C@H]3CC[C@@H]2[C@@H]3N)cc2nc(-c3cc4cccnc4n3CC3CC3)n(C3CN(c4cncc(C#N)c4)C3)c12` [Example 73, 5-(3-{5-[(1R,4R,7R)-7-amino-2-azabicyclo[2.2.1]heptane-2-carbonyl]-2-[1-(cyclopropylmethyl)-1H-pyrrolo[2,3-b]pyridin-2-yl]-7-methoxy-1H-1,3-benzodiazol-1-yl}azetidin-1-yl)pyridine-3-carbonitrile], the half-inhibitory concentration (IC50) was 149 nM.

As to `COc1cc(C(=O)N2C[C@H]3CC[C@@H]2[C@@H]3N)cc2nc(-c3cc4ccc(Cl)cc4n3CC3CC3)n(CC3CN(c4ccnc(C)n4)C3)c12` [Example 9, (1R,4R,7R)-2-{2-[6-chloro-1-(cyclopropylmethyl)-1H-indol-2-yl]-7-methoxy-1-{[1-(2-methylpyrimidin-4-yl)azetidin-3-yl]methyl}-1H-1,3-benzodiazole-5-carbonyl}-2-azabicyclo[2.2.1]heptan-7-amine], the half-maximal inhibitory concentration (IC50) amounted to 21 nM.

As for `COc1cc(C(=O)N2CC3CCC2[C@@H]3N)cc2nc(-c3cc4cccnc4n3CC3CC3)n(CC3CN(c4cc(Cl)cnc4C#N)C3)c12` (stereo partly drawn) [Example 38, 3-[3-({5-[(1R,4R,7R)-7-amino-2-azabicyclo[2.2.1]heptane-2-carbonyl]-2-[1-(cyclopropylmethyl)-1H-pyrrolo[2,3-b]pyridin-2-yl]-7-methoxy-1H-1,3-benzodiazol-l-yl}methyl)azetidin-1-yl]-5-chloropyridine-2-carbonitrile], the concentration for half-maximal inhibition (IC50) came to 94 nM.

In the case of `COc1cc(C(=O)N2C[C@H](N)C[C@@H](F)C2)cc2nc(-c3cc4cccnc4n3CC3CC3)n(Cc3cnn(-c4cccc(C(F)F)n4)c3)c12` [Example 375], the IC50 stood at 35 nM.

As to `COc1cc(C(=O)N2C[C@H]3CC[C@@H]2[C@@H]3N)cc2nc(-c3cc4ccccc4n3CC3CC3)n(CC3CN(c4cncnc4C#N)C3)c12` [Example 11, 5-[3-({5-[(1R,4R,7R)-7-amino-2-azabicyclo[2.2.1]heptane-2-carbonyl]-2-[1-(cyclopropylmethyl)-1H-indol-2-yl]-7-methoxy-1H-1,3-benzodiazol-1-yl}methyl)azetidin-1-yl]pyrimidine-4-carbonitrile], the 50% inhibitory concentration (IC50) was 37 nM.

For `COc1cc(C(=O)N2CC3CCC2[C@@H]3N)cc2nc(-c3cc4cccnc4n3CC3CC3)n([C@H]3C[C@@H](N)C3)c12` (stereo partly drawn) [Example 295, (1R,4R,7R)-2-{2-[1-(cyclopropylmethyl)-1H-pyrrolo[2,3-b]pyridin-2-yl]-7-methoxy-1-[(1s,3s)-3-aminocyclobutyl]-1H-1,3-benzodiazole-5-carbonyl}-2-azabicyclo[2.2.1]heptan-7-amine], the concentration for half-maximal inhibition (IC50) came out at 282 nM.

In the case of `COc1cc(C(=O)N2C[C@H]3CC[C@@H]2[C@@H]3N)cc2nc(-c3cc4cccnc4n3CC3CC3)n(CC3CN(c4cccc(C#N)n4)C3)c12` [Example 21, 6-[3-({5-[(1R,4R,7R)-7-amino-2-azabicyclo[2.2.1]heptane-2-carbonyl]-2-[1-(cyclopropylmethyl)-1H-pyrrolo[2,3-b]pyridin-2-yl]-7-methoxy-1H-1,3-benzodiazol-1-yl}methyl)azetidin-1-yl]pyridine-2-carbonitrile], the half-inhibitory concentration (IC50) turned out to be 57 nM.

Regarding `COc1cccc(C(=O)N2CC(Cn3c(-c4cc5ccccc5n4CC4CC4)nc4cc(C(=O)N5C[C@H]6CC[C@@H]5[C@@H]6N)cc(OC)c43)C2)c1` [Example 158, (1R,4R,7R)-2-{2-[1-(cyclopropylmethyl)-1H-indol-2-yl]-7-methoxy-1-{[1-(3-methoxybenzoyl)azetidin-3-yl]methyl}-1H-1,3-benzodiazole-5-carbonyl}-2-azabicyclo[2.2.1]heptan-7-amine], the half-inhibitory concentration (IC50) is 23 nM.

As for `COc1cc(C(=O)N2CC3CCC2[C@@H]3N)cc2nc(-c3cc4ccccc4n3CC3CC3)n(Cc3cnn(-c4ccc(C(F)F)nc4)c3)c12` (stereo partly drawn) [Example 387, (7R)-2-{2-[1-(cyclopropylmethyl)-1H-indol-2-yl]-1-({1-[6-(difluoromethyl)pyridin-3-yl]-1H-pyrazol-4-yl}methyl)-7-methoxy-1H-1,3-benzodiazole-5-carbonyl}-2-azabicyclo[2.2.1]heptan-7-amine], the IC50 was found to be 42 nM.

Regarding `COc1cc(C(=O)N2C[C@H]3CC[C@@H]2[C@@H]3N)cc2nc(-c3cc4cccnc4n3CC3CC3)n(C[C@@H]3CCN(c4ccnc(C)n4)C3)c12` [Example 216, (1R,4R,7R)-2-{2-[1-(cyclopropylmethyl)-1H-pyrrolo[2,3-b]pyridin-2-yl]-7-methoxy-1-{[(3R)-1-(2-methylpyrimidin-4-yl)pyrrolidin-3-yl]methyl}-1H-1,3-benzodiazole-5-carbonyl}-2-azabicyclo[2.2.1]heptan-7-amine], the half-inhibitory concentration (IC50) is 153 nM.

Consider `COc1cc(C(=O)N2C[C@H](N)C[C@@H](F)C2)cc2nc(-c3cc4cccnc4n3CC3CC3)n(Cc3cnn(-c4ncccn4)c3)c12` [Example 401, (3R,5R)-1-{2-[1-(cyclopropylmethyl)-1H-pyrrolo[2,3-b]pyridin-2-yl]-7-methoxy-1-{[1-(pyrimidin-2-yl)-1H-pyrazol-4-yl]methyl}-1H-1,3-benzodiazole-5-carbonyl}-5-fluoropiperidin-3-amine], for which the concentration for half-maximal inhibition (IC50) was found to be 59 nM.

`COc1cc(C(=O)N2C[C@H]3CC[C@@H]2[C@@H]3N)cc2nc(-c3cc4cccnc4n3CC3CC3)n(CC3CN(c4cncc(C#N)n4)C3)c12` [Example 3, 6-(3-((5-((1R,4R,7R)-7-amino-2-azabicyclo[2.2.1]heptane-2-carbonyl)-2-(1-(cyclopropylmethyl)-1H-pyrrolo[2,3-b]pyridin-2-yl)-7-methoxy-1H-benzo[d]imidazol-1-yl)methyl)azetidin-1-yl)pyrazine-2-carbonitrile]: the IC50 was 55 nM.

For `COc1cc(C(=O)N2CC3CCC2[C@@H]3N)cc2nc(-c3cc4cccnc4n3CC3CC3)n(CC3CCN(c4ncccn4)C3)c12` (stereo in doubt) [Example 231, (1R,4R,7R)-2-{2-[1-(cyclopropylmethyl)-1H-pyrrolo[2,3-b]pyridin-2-yl]-7-methoxy-1-{[(3S)-1-(pyrimidin-2-yl)pyrrolidin-3-yl]methyl}-1H-1,3-benzodiazole-5-carbonyl}-2-azabicyclo [2.2.1]heptan-7-amine], the IC50 turned out to be 203 nM.

Turning to `COc1cc(C(=O)N2CC3CCC2[C@@H]3N)cc2nc(-c3cc4cccnc4n3CC3CC3)n(CC3CN(C(=O)c4ccccc4F)C3)c12` (stereo partly drawn) [Example 442, (7R)-2-{2-[1-(cyclopropylmethyl)-1H-pyrrolo[2,3-b]pyridin-2-yl]-1-{[1-(2-fluorobenzoyl)azetidin-3-yl]methyl}-7-methoxy-1H-1,3-benzodiazole-5-carbonyl}-2-azabicyclo[2.2.1]heptan-7-amine], the half-inhibitory concentration (IC50) worked out at 39 nM.

On to `COc1cc(C(=O)N2CC3CCC2[C@@H]3N)cc2nc(-c3cc4cccnc4n3CC3CC3)n(CCNC(C)=O)c12` (stereo partly drawn) [Example 289, N-(2-{5-[(1R,4R,7R)-7-amino-2-azabicyclo[2.2.1]heptane-2-carhonyl]-2-[1-(cyclopropylmethyl)-1H-pyrrolo[2,3-b]pyridin-2-yl]-7-methoxy-1H-1,3-benzodiazol-1-yl}ethyl)acetamide], for which the IC50 came to 1290 nM.

Regarding `COc1cc(C(=O)N2C[C@H]3CC[C@@H]2[C@@H]3N)cc2nc(-c3cc4cccnc4n3CC3CC3)n(CC3CN(c4ncncc4C#N)C3)c12` [Example 37, 4-[3-({5-[(1R,4R,7R)-7-amino-2-azabicyclo[2.2.1]heptane-2-carbonyl]-2-[1-(cyclopropylmethyl)-1H-pyrrolo[2,3-b]pyridin-2-yl]-7-methoxy-1H-1,3-benzodiazol-1-yl}methyl)azetidin-1-yl]pyrimidine-5-carbonitrile], the IC50 was 93 nM.

In the case of `COc1cc(C(=O)N2CC3CCC2[C@@H]3N)cc2nc(-c3cc4ccccc4n3CC3CC3)n(Cc3cnn(-c4cncc(F)c4)c3)c12` (stereo partly drawn) [Example 359, (7R)-2-{2-[1-(cyclopropylmethyl)-1H-indol-2-yl]-1-{[1-(5-fluoropyridin-3-yl)-1H-pyrazol-4-yl]methyl}-7-methoxy-1H-1,3-benzodiazole-5-carbonyl}-2-azabicyclo[2.2.1]heptan-7-amine], the 50% inhibitory concentration (IC50) was found to be 23 nM.

Turning to `COc1cc(C(=O)N2C[C@H]3CC[C@@H]2[C@@H]3N)cc2nc(-c3cc4cccnc4n3CC3CC3)n(C[C@H]3CCN(c4cncc(C#N)c4)C3)c12` [Example 195, 5-[(3S)-3-({5-[(1R,4R,7R)-7-amino-2-azabicyclo[2.2.1]heptane-2-carbonyl]-2-[1-(cyclopropylmethyl)-1H-pyrrolo[2,3-b]pyridin-2-yl]-7-methoxy-1H-1,3-benzodiazol-1-yl}methyl)pyrrolidin-1-yl]pyridine-3-carbonitrile], the IC50 stood at 14 nM.
